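Values below derive from 48-hour exposures of cells grown in 96-well plates, with endpoints linearly interpolated between the two concentrations bracketing the appropriate inhibition level. TGI marks complete inhibition of growth.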
What was measured:
Assay in all cases: growth of human tumour cells (NCI), 48 h
UO-31 renal = test system: UO-31 renal
OVCAR-8 ovarian = test system: OVCAR-8 ovarian
K-562 leukemia = test system: K-562 leukemia
SN12C renal = test system: SN12C renal
NCI-H522 lung = test system: NCI-H522 lung
A549 NSCLC = test system: A549 NSCLC
NCI-H460 lung = test system: NCI-H460 lung
A498 renal = test system: A498 renal
CCRF-CEM leukemia = test system: CCRF-CEM leukemia
HOP-92 NSCLC = test system: HOP-92 NSCLC
DLD-1 colon = test system: DLD-1 colon
SK-OV-3 ovarian = test system: SK-OV-3 ovarian
NCI-H226 lung = test system: NCI-H226 lung
NCI-H23 lung = test system: NCI-H23 lung
IGROV1 ovarian = test system: IGROV1 ovarian
SF-295 CNS = test system: SF-295 CNS
HOP-18 NSCLC = test system: HOP-18 NSCLC
M14 melanoma = test system: M14 melanoma
UACC-257 melanoma = test system: UACC-257 melanoma
HOP-62 NSCLC = test system: HOP-62 NSCLC
KM12 colon = test system: KM12 colon
ACHN renal = test system: ACHN renal
MOLT-4 leukemia = test system: MOLT-4 leukemia
SF-268 CNS = test system: SF-268 CNS
HCT-15 colon = test system: HCT-15 colon
HL-60(TB) leukemia = test system: HL-60(TB) leukemia
SK-MEL-5 melanoma = test system: SK-MEL-5 melanoma
SK-MEL-28 melanoma = test system: SK-MEL-28 melanoma
SF-539 CNS = test system: SF-539 CNS
M19-MEL melanoma = test system: M19-MEL melanoma
OVCAR-3 ovarian = test system: OVCAR-3 ovarian
CAKI-1 renal = test system: CAKI-1 renal
KM20L2 colon = test system: KM20L2 colon
RPMI-8226 leukemia = test system: RPMI-8226 leukemia
MALME-3M melanoma = test system: MALME-3M melanoma
COLO 205 colon = test system: COLO 205 colon
HCT-116 colon = test system: HCT-116 colon
786-0 renal = test system: 786-0 renal
TK-10 renal = test system: TK-10 renal
OVCAR-5 ovarian = test system: OVCAR-5 ovarian
HT29 colon = test system: HT29 colon
U251 CNS = test system: U251 CNS
SK-MEL-2 melanoma = test system: SK-MEL-2 melanoma
LOX IMVI melanoma = test system: LOX IMVI melanoma
SNB-75 CNS = test system: SNB-75 CNS
LXFL 529 NSCLC = test system: LXFL 529 NSCLC
SR leukemia = test system: SR leukemia
OVCAR-4 ovarian = test system: OVCAR-4 ovarian
DMS 273 small cell lung = test system: DMS 273 small cell lung
DMS 114 small cell lung = test system: DMS 114 small cell lung
SW-620 colon = test system: SW-620 colon
RXF 393 renal = test system: RXF 393 renal
SNB-78 CNS = test system: SNB-78 CNS
UACC-62 melanoma = test system: UACC-62 melanoma
EKVX NSCLC = test system: EKVX NSCLC
HCC-2998 colon = test system: HCC-2998 colon
XF 498 CNS = test system: XF 498 CNS
SNB-19 CNS = test system: SNB-19 CNS

Measured: TGI

O=C(OCc1ccccc1C1CSCSC1)c1cc(C(=O)OCc2ccccc2C2CSCSC2)c(C(=O)OCc2ccccc2C2CSCSC2)cc1C(=O)OCc1ccccc1C1CSCSC1
> 100 µM: UO-31 renal | OVCAR-8 ovarian | K-562 leukemia | SN12C renal | NCI-H522 lung | A549 NSCLC | NCI-H460 lung | A498 renal | CCRF-CEM leukemia | HOP-92 NSCLC | DLD-1 colon | SK-OV-3 ovarian | NCI-H226 lung | NCI-H23 lung | IGROV1 ovarian | SF-295 CNS | HOP-18 NSCLC | M14 melanoma | UACC-257 melanoma | HOP-62 NSCLC | KM12 colon | ACHN renal | MOLT-4 leukemia | SF-268 CNS | HCT-15 colon | HL-60(TB) leukemia | SK-MEL-5 melanoma | SK-MEL-28 melanoma | SF-539 CNS | M19-MEL melanoma | OVCAR-3 ovarian | CAKI-1 renal | KM20L2 colon | RPMI-8226 leukemia | MALME-3M melanoma | COLO 205 colon | HCT-116 colon | 786-0 renal | TK-10 renal | OVCAR-5 ovarian | HT29 colon | U251 CNS | SK-MEL-2 melanoma | LOX IMVI melanoma | SNB-75 CNS | LXFL 529 NSCLC | SR leukemia | OVCAR-4 ovarian | DMS 273 small cell lung | DMS 114 small cell lung | SW-620 colon | RXF 393 renal | SNB-78 CNS | UACC-62 melanoma

Cc1cc2n([O-])cccc-2[n+](=O)c1
> 100 µM: UO-31 renal | OVCAR-8 ovarian | K-562 leukemia | SN12C renal | NCI-H522 lung | A549 NSCLC | EKVX NSCLC | NCI-H460 lung | CCRF-CEM leukemia | HOP-92 NSCLC | DLD-1 colon | SK-OV-3 ovarian | NCI-H226 lung | NCI-H23 lung | IGROV1 ovarian | SF-295 CNS | M14 melanoma | UACC-257 melanoma | HOP-62 NSCLC | KM12 colon | ACHN renal | MOLT-4 leukemia | SF-268 CNS | HCT-15 colon | HL-60(TB) leukemia | SK-MEL-5 melanoma | SK-MEL-28 melanoma | HCC-2998 colon | SF-539 CNS | M19-MEL melanoma | OVCAR-3 ovarian | CAKI-1 renal | KM20L2 colon | RPMI-8226 leukemia | MALME-3M melanoma | XF 498 CNS | COLO 205 colon | HCT-116 colon | TK-10 renal | OVCAR-5 ovarian | HT29 colon | U251 CNS | SK-MEL-2 melanoma | SNB-75 CNS | LXFL 529 NSCLC | SR leukemia | OVCAR-4 ovarian | DMS 273 small cell lung | DMS 114 small cell lung | SW-620 colon | RXF 393 renal | SNB-19 CNS | SNB-78 CNS | UACC-62 melanoma
